Measurements from patent JP2019019068A, “アリールアゾール化合物および有害生物防除剤” (Nippon Soda Co Ltd, priority 2017, dated 2019).

What was measured:
[1] = test system: diamondback moth (コナガ) 2nd instar larvae; assay: Test Example 1: efficacy test against diamondback moth (コナガ), cabbage leaf dip; format: in vivo; details: Plutella xylostella, foliar, 72 h, cabbage leaf dipped 30 s, 25 °C, 60% humidity, 3 days after release, 2 replicates, read-out: insecticidal rate
[2] = test system: striped flea beetle (キスジノミハムシ) adults; assay: Test Example 2: efficacy test against striped flea beetle (キスジノミハムシ), spray on bok choy seedlings; format: in vivo; details: Phyllotreta striolata, 168 h, sprayed on bok choy seedlings, 25 °C, 65% humidity, 7 days after release, 2 replicates, read-out: insecticidal rate

With CCS(=O)(=O)c1cc(/C=N/OCC(F)(F)F)cnc1-c1ncc(C=C(Cl)C(F)(F)F)n1C [化合物番号1, (E)-6-(5-(2-chloro-3,3,3-trifluoroprop-1-en-1-yl)-1-methyl-1H-imidazol-2-yl)-5-(ethylsulfonyl)nicotinaldehyde O-(2,2,2-trifluoroethyl) oxime] the mortality at 125 ppm [1] was ≥ 80% and the mortality at 125 ppm [2] was ≥ 80%.
